Each molecule was assayed against human Kv1.3 (Homo sapiens (Human), UniProt P22001) (assay: Kv1.3 potency evaluation, automated patch clamp electrophysiology (QPatch HT) in CHO-Kv1.3 cells). Conditions: whole-cell QPatch HT, % inhibition of charge, step to +30 mV, four concentrations, N≥3 cells, read-out: hKv1.3 IC50.
Assay type: cell-based
Description: Biological Assays Kv1.3 Potency Evaluation Electrophysiology Recordings
A proprietary Chinese hamster ovary cell line stably expressing exogenous human a-subunits of Kv1.3 (CHO-Kv1.3) channel, validated biophysically and pharmacologically in house, was used to assess the ability of test compounds to block Kv1.3 currents using automated patch clamp electrophysiology. The QPatch HT system (Sophion Bioscience A/S, Denmark) was used with the conventional whole-cell configuration. This system is an automated, chip-based planar patch clamp device allowing for up to 48 parallel independent experiments in one experimental assay run. Cells are added to each well and drawn by suction onto a small aperture to obtain a Gigaohm seal between the cell membrane and treated silicon surface, and whole-cell recordings initiated after access is achieved by suction and/or voltage pulses. The QPatch HT uses static perfusion, whereby a small volume of recording solution or drug is added to a reservoir on the chip and the solution perfuses across the cell through quartz-lined microfluidic channels; this solution is removed by capillary action when the next sample application is made.
CHO-Kv1.3 cells were prepared for experiments by dissociation from T175 cell culture flasks using trypsin-EDTA (0.05%), cells were kept in serum free media in the cell hotel on board the QPatch HT. These cells were sampled, washed and re-suspended in extracellular recording solution by the QPatch HT immediately before application to the recording well site on the chip. Experiments were performed using the following solutions; extracellular solution contained (in mM); 150 NaCl, 10 KCl, 1 MgCl2, 3 CaCl2), 10 Glucose and 10 HEPES (pH 7.4, NaOH) and intracellular solution contained (in mM); 20 KCl, 120 KF, 10 HEPES, 10 EGTA, 5 ATP (pH 7.2, KOH).
The potency (Inhibitory Concentration 50%, IC50) of synthesized compounds against Kv1.3 was determined from concentration-response relationships established by cumulatively applying four escalating concentrations of test compound to an individual cell and a minimum of N≥3 individual cells of data per compound were used to generate the IC50 value.
On achieving the whole-cell configuration; two additions of vehicle (0.1-0.3% DMSO v/v) were applied to each cell in two bolus additions with a two minute recording period between each addition (four minutes total recording time). Following the vehicle period, four concentrations of test sample were applied as two bolus additions per test concentration at two minute intervals, and the effects on current measured during the four minute recording period.
Currents were elicited using a single step voltage protocol. From a holding potential of −80 mV the cell is depolarised to +30 mV (500 ms) resulting in an outward current before finally repolarising the cell by returning to the holding potential. The command voltage was applied at a frequency of 0.067 Hz throughout the duration of the experiment. For each sweep of the voltage protocol membrane current and the passive properties of the individual cells were recorded by QPatch assay software (version 5.2). Cursors were placed to calculate the charge (integral of the current recorded during cursor interval) between 2-490 ms (0.4-99%) of the 500 ms step to +30 mV.
The % inhibition of charge for each test concentration application period was calculated as the reduction in mean charge at the end of each concentration test period relative to the charge value measured at the end of the control (i.e. vehicle) period. Sigmoidal concentration response curves (four parameter logistic curve) were fitted to the % inhibition rom which the IC50 was determined. Curve fits were constrained at 0 and 100%.

Chain of human Kv1.3 (P22001 whole entry): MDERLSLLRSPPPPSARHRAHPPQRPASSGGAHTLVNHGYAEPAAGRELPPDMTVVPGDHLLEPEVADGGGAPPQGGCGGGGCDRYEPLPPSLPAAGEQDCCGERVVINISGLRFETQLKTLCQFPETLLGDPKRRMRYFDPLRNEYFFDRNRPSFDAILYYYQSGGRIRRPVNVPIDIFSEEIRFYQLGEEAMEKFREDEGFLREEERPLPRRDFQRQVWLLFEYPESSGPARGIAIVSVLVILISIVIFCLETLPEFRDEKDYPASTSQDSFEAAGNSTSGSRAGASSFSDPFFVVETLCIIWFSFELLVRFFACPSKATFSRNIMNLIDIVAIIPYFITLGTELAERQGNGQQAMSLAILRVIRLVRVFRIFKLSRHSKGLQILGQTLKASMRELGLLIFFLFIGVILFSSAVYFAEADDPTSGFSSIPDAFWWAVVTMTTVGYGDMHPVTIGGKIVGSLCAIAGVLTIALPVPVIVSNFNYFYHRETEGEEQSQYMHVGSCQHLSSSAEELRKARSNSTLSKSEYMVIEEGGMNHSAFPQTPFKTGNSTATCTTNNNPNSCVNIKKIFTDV

Row | Compound | IC50 [nM]
1 | CC1(C)N=C(C23CC(N(Cc4ccc(Cl)c(F)c4)S(=O)(=O)c4ccccc4)(C2)C3)N[C@H]1C(=O)NC1CC1C(F)(F)F (mixture of isomers) [Example 169] | 100
2 | CC1(C)N=C(C23CC(N(Cc4ccc(Cl)c(Cl)c4)S(=O)(=O)c4ccccc4)(C2)C3)N[C@H]1C(=O)N1CCC2(C1)CC(F)(F)C2 (mixture of isomers) [Example 116] | 73
3 | CC1(C)N=C(C23CC(N(Cc4ccc(Cl)c(Cl)c4)S(=O)(=O)CCC(F)F)(C2)C3)N[C@H]1C(=O)NCC(F)(F)C(F)(F)F (mixture of isomers) [Example 210] | 144
4 | CC1(NC(=O)[C@@H]2NC(C34CC(N(Cc5ccc(Cl)c(F)c5)S(=O)(=O)c5ccccc5)(C3)C4)=NC2(C)C)CCC1 (mixture of isomers) [Example 21] | 38
5 | CN(C[C@H]1CC1(F)F)C(=O)[C@@H]1NC(C23CC(N(Cc4ccc(Cl)c(Cl)c4)S(=O)(=O)CCC(F)F)(C2)C3)=NC1(C)C (mixture of isomers) [Example 183] | 108
6 | CN(C(=O)[C@@H]1NC(C23CC(N(Cc4ccc(Cl)c(F)c4)S(=O)(=O)c4ccccc4)(C2)C3)=NC1(C)C)C1CC(C(F)F)C1 (mixture of isomers) [Example 78] | 60
7 | CC1(C)N=C(C23CC(N(Cc4ccc(Cl)c(Cl)c4)S(=O)(=O)CCC(F)F)(C2)C3)N[C@H]1C(=O)NCC1CC1(F)F (mixture of isomers) [Example 103] | 68
8 | CC(C)(C)CS(=O)(=O)N(Cc1ccc(Cl)cc1)C12CC(C3=NC(C)(C)[C@H](C(=O)NCCC(F)(F)F)N3)(C1)C2 (mixture of isomers) [Example 139] | 84
9 | CC1(C)N=C(C23CC(N(Cc4ccc(Cl)c(F)c4)S(=O)(=O)c4ccccc4)(C2)C3)N[C@H]1C(=O)N1CCC12CCC2 (mixture of isomers) [Example 30] | 41
10 | CC(C)NC(=O)[C@@]1(C)CN=C(C23CC(N(Cc4ccccc4)S(=O)(=O)c4ccccc4)(C2)C3)N1 (mixture of isomers) [Example 258] | 362
11 | CC1N=C(C23CC(N(Cc4ccc(C(F)(F)F)cc4)S(=O)(=O)c4ccc(F)cc4)(C2)C3)N[C@@]1(C)C(=O)NCCC(F)(F)F (mixture of isomers) [Example 265] | 408
12 | CC1(C)N=C(C23CC(N(Cc4ccc(Cl)c(F)c4)S(=O)(=O)c4ccccc4)(C2)C3)N[C@H]1C(=O)N1CCC(F)(F)CC1 (mixture of isomers) [Example 123] | 75
13 | C[C@]1(C(=O)NC2CCCCC2)CN=C(C23CC(N(Cc4ccc(C(F)(F)F)cc4)S(=O)(=O)c4ccc(F)cc4)(C2)C3)N1 (mixture of isomers) [Example 268] | 441
14 | C[C@@]1(C(=O)NCC2CCCCC2)CN=C(C23CC(N(Cc4ccc(C(F)(F)F)cc4)S(=O)(=O)c4ccc(F)cc4)(C2)C3)N1 (mixture of isomers) [Example 285] | 802
15 | C[C@@]1(C(=O)NCC2CCC2)CN=C(C23CC(N(Cc4ccc(C(F)(F)F)cc4)S(=O)(=O)c4ccc(F)cc4)(C2)C3)N1 (mixture of isomers) [Example 247] | 262
16 | CC1(C)N=C(C23CC(N(Cc4ccc(Cl)c(Cl)c4)S(=O)(=O)c4ccccc4)(C2)C3)N[C@H]1C(=O)N1CCC2(COC2)C1 (mixture of isomers) [Example 283] | 749
17 | C[C@]1(C(=O)N2CCCCC2)CN=C(C23CC(N(Cc4ccc(C(F)(F)F)cc4)S(=O)(=O)c4ccc(F)cc4)(C2)C3)N1 (mixture of isomers) [Example 244] | 252
18 | CC1(C)N=C(C23CC(N(Cc4ccc(Cl)c(F)c4)S(=O)(=O)c4ccccc4)(C2)C3)N[C@H]1C(=O)N1CCC1 (mixture of isomers) [Example 282] | 706
19 | CC1(C)N=C(C23CC(N(Cc4ccc(Cl)c(F)c4)S(=O)(=O)c4ccccc4)(C2)C3)N[C@H]1C(=O)N1CC(F)(F)C(F)(F)C1 (mixture of isomers) [Example 61] | 51
20 | CN(CCC(F)(F)F)C(=O)[C@@H]1NC(C23CC(N(Cc4ccc(Cl)c(F)c4)S(=O)(=O)c4ccccc4)(C2)C3)=NC1(C)C (mixture of isomers) [Example 3] | 61

Row | Compound | IC50 [nM]
21 | CC1(C)N=C(C23CC(N(Cc4ccc(Cl)cc4)S(=O)(=O)CCC4CC4)(C2)C3)N[C@H]1C(=O)NCCC(F)(F)F (mixture of isomers) [Example 67] | 53
22 | CC1(C)N=C(C23CC(N(Cc4ccc(Cl)c(Cl)c4)S(=O)(=O)c4ccccc4)(C2)C3)N[C@H]1C(=O)NC1CC1C(F)(F)F (mixture of isomers) [Example 160] | 97
23 | CC(F)(F)CNC(=O)[C@@H]1NC(C23CC(N(Cc4ccc(Cl)c(F)c4)S(=O)(=O)c4ccccc4)(C2)C3)=NC1(C)C (mixture of isomers) [Example 15] | 33
24 | CC1(C)N=C(C23CC(N(Cc4ccc(Cl)c(F)c4)S(=O)(=O)c4ccccc4)(C2)C3)N[C@H]1C(=O)NCC(C)(C)C(F)(F)F (mixture of isomers) [Example 163] | 98
25 | C[C@@H]1CC(F)(F)CN1C(=O)[C@@H]1NC(C23CC(N(Cc4ccc(Cl)c(F)c4)S(=O)(=O)c4ccccc4)(C2)C3)=NC1(C)C (mixture of isomers) [Example 27] | 40
26 | CC1(C)N=C(C23CC(N(Cc4ccc(Cl)c(F)c4)S(=O)(=O)c4ccccc4)(C2)C3)N[C@@H]1C(=O)NCCC(F)(F)F (mixture of isomers) [Example 146] | 88
27 | CC(F)(F)CCS(=O)(=O)N(Cc1ccc(Cl)c(Cl)c1)C12CC(C3=NC(C)(C)[C@H](C(=O)NCC(F)(F)C(F)(F)F)N3)(C1)C2 (mixture of isomers) [Example 156] | 92
28 | CC1(C)N=C(C23CC(N(Cc4ccc(Cl)c(F)c4)S(=O)(=O)c4ccccc4)(C2)C3)N[C@H]1C(=O)N1CCC2(C1)CC(F)(F)C2 (mixture of isomers) [Example 144] | 87
29 | O=C(NCCC(F)(F)F)[C@@H]1NC(C23CC(N(Cc4ccc(C(F)(F)F)cc4)S(=O)(=O)c4ccc(F)cc4)(C2)C3)=NC12CC2 [Example 224] | 178
30 | C[C@]1(C(=O)NCC2CC(F)(F)C2)CN=C(C23CC(N(Cc4ccc(C(F)(F)F)cc4)S(=O)(=O)c4ccc(F)cc4)(C2)C3)N1 (mixture of isomers) [Example 227] | 186
31 | CC1(NC(=O)C2NC(C34CC(N(Cc5ccc(C(F)(F)F)cc5)S(=O)(=O)c5ccc(F)cc5)(C3)C4)=NC2(C)C)CCC1 (stereo not drawn) [Example 232] | 208
32 | CC(C)C1(C(=O)NCC2CCC2)CN=C(C23CC(N(Cc4ccc(C(F)(F)F)cc4)S(=O)(=O)c4ccc(F)cc4)(C2)C3)N1 (stereo not drawn) [Example 266] | 415
33 | CCCS(=O)(=O)N(Cc1ccc(Cl)c(Cl)c1)C12CC(C3=NC(C)(C)[C@H](C(=O)NCC(C)(C)C(F)(F)F)N3)(C1)C2 (mixture of isomers) [Example 46] | 47
34 | CC1(C)N=C(C23CC(N(Cc4ccc(Cl)c(F)c4)S(=O)(=O)c4ccccc4)(C2)C3)N[C@H]1C(=O)N1C2CCC1CC(F)(F)C2 (mixture of isomers) [Example 77] | 60
35 | C[C@]1(C(=O)NCc2ccccc2)CN=C(C23CC(N(Cc4ccc(C(F)(F)F)cc4)S(=O)(=O)c4ccc(F)cc4)(C2)C3)N1 (mixture of isomers) [Example 270] | 485
36 | CC1(C)N=C(C23CC(N(Cc4ccc(Cl)c(F)c4)S(=O)(=O)c4ccccc4)(C2)C3)N[C@H]1C(=O)N1CCCCC1 (mixture of isomers) [Example 31] | 42
37 | CC1(C)N=C(C23CC(N(Cc4ccc(Cl)c(Cl)c4)S(=O)(=O)CCC(F)F)(C2)C3)N[C@H]1C(=O)N1CCC(F)(F)CC1 (mixture of isomers) [Example 194] | 121
38 | CC1(C)N=C(C23CC(N(Cc4ccc(Cl)cc4)S(=O)(=O)CC4CC4)(C2)C3)N[C@H]1C(=O)NCCC(F)(F)F (mixture of isomers) [Example 4] | 79
39 | C[C@]1(C(=O)N2CC3CC3C2)CN=C(C23CC(N(Cc4ccc(C(F)(F)F)cc4)S(=O)(=O)c4ccc(F)cc4)(C2)C3)N1 (mixture of isomers) [Example 234] | 211

From US12128028B2, “Heterocyclic sulfonamide derivatives and pharmaceutical uses thereof” (METRION BIOSCIENCES LIMITED, priority 2018, dated 2024)
